Experimental data: patent publication US12077503B2, “Substituted cyclic amides and their use as herbicides” (FMC CORPORATION, priority 2015, dated 2024)

Tests used:
Assay type in all cases: in vivo
[1] = tested on: barnyardgrass (Echinochloa crus-galli); experiment: Test A postemergence; details: Echinochloa crus-galli, post-emergence, 240 h, Postemergence
Method in brief: (§1)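 Seeded soil received test chemicals as a preemergence directed spray, and seedlings at one to two leaves, 2–10 cm tall, received them postemergence, in a non-phytotoxic, surfactant-containing solvent mixture. Pots were held in a greenhouse for approximately 10 d, then rated for injury from 0, no effect, to 100, complete control.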

[2] = tested on: wheat (Triticum aestivum); experiment: Test A postemergence; details: Triticum aestivum, post-emergence, 240 h, Postemergence
Method in brief: as §1

[3] = tested on: ryegrass, Italian (Italian ryegrass, Lolium multiflorum); experiment: Test A postemergence; details: Lolium multiflorum, post-emergence, 240 h, Postemergence
Method in brief: as §1

Kochia (Kochia scoparia) [4] = experiment: Test A postemergence; details: Bassia scoparia, post-emergence, 240 h, Postemergence
Method in brief: as §1

[5] = tested on: Galium (catchweed bedstraw, Galium aparine); experiment: Test A postemergence; details: Galium, post-emergence, 240 h, Postemergence
Method in brief: as §1

[6] = tested on: giant foxtail (Setaria faberii); experiment: Test A postemergence; details: Setaria faberi, post-emergence, 240 h, Postemergence
Method in brief: as §1

[7] = tested on: ragweed (common ragweed, Ambrosia elatior); experiment: Test A postemergence; details: Ambrosia artemisiifolia, post-emergence, 240 h, Postemergence
Method in brief: as §1

corn (Zea mays) = experiment: Test A postemergence; details: Zea mays, post-emergence, 240 h, Postemergence
Method in brief: as §1

[8] = tested on: blackgrass (Alopecurus myosuroides); experiment: Test A postemergence; details: Alopecurus myosuroides, post-emergence, 240 h, Postemergence
Method in brief: as §1

[9] = tested on: pigweed (Amaranthus retroflexus); experiment: Test A postemergence; details: Amaranthus retroflexus, post-emergence, 240 h, Postemergence
Method in brief: as §1

[10] = tested on: barnyardgrass (Echinochloa crus-galli); experiment: Test A preemergence; details: Echinochloa crus-galli, pre-emergence, 240 h, Preemergence
Method in brief: as §1

[11] = tested on: ryegrass, Italian (Italian ryegrass, Lolium multiflorum); experiment: Test A preemergence; details: Lolium multiflorum, pre-emergence, 240 h, Preemergence
Method in brief: as §1

Kochia (Kochia scoparia) [12] = experiment: Test A preemergence; details: Bassia scoparia, pre-emergence, 240 h, Preemergence
Method in brief: as §1

[13] = tested on: giant foxtail (Setaria faberii); experiment: Test A preemergence; details: Setaria faberi, pre-emergence, 240 h, Preemergence
Method in brief: as §1

[14] = tested on: ragweed (common ragweed, Ambrosia elatior); experiment: Test A preemergence; details: Ambrosia artemisiifolia, pre-emergence, 240 h, Preemergence
Method in brief: as §1

[15] = tested on: pigweed (Amaranthus retroflexus); experiment: Test A preemergence; details: Amaranthus retroflexus, pre-emergence, 240 h, Preemergence
[16] = tested on: barnyardgrass (Echinochloa crus-galli); experiment: Test B flooded paddy test; details: Echinochloa crus-galli, 360 h, Flood, 250 g ai/ha; visually evaluated after 13 to 15 d; read-out: Plant response rating, Barnyardgrass (0 to 100 scale where 0 is no effect and 100 is complete control)
Method in brief: (§2)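 Greenhouse paddy pots with 2-leaf stage plants received compound by direct addition to floodwater 3 cm deep, kept at that level. Scored visually at 13–15 d versus controls (0 no effect; 100 complete control).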

rice (Oryra sativa) = experiment: Test B flooded paddy test; details: Oryza sativa, 360 h, Flood, 250 g ai/ha; visually evaluated after 13 to 15 d; read-out: Plant response rating, Rice (0 to 100 scale where 0 is no effect and 100 is complete control)
Method in brief: as §2

[17] = tested on: ducksalad (Heteranthera limosa); experiment: Test B flooded paddy test; details: Heteranthera limosa, 360 h, Flood, 250 g ai/ha; visually evaluated after 13 to 15 d; read-out: Plant response rating, Ducksalad (0 to 100 scale where 0 is no effect and 100 is complete control)
Method in brief: as §2

[18] = tested on: sedge, umbrella (small-flower umbrella sedge, Cyperus difformis); experiment: Test B flooded paddy test; details: Cyperus difformis, 360 h, Flood, 250 g ai/ha; visually evaluated after 13 to 15 d; read-out: Plant response rating, Sedge, Umbrella (0 to 100 scale where 0 is no effect and 100 is complete control)
Method in brief: as §2

## Cc1ccc([C@H]2CN(C)C(=O)[C@@H]2C(=O)Nc2ccc(F)nc2F)cc1 [Compound 1402]
[1]; 31 g ai/ha, 0 is no effect, 100 is complete control, read-out: Barnyardgrass plant response rating (0 to 100 scale)
  pest or weed control at 31 g/ha: 80%
[1]; 125 g ai/ha, visual injury after approx. 10 d, 0 to 100 scale, 0 no effect, 100 complete control, read-out: Plant response rating, Barnyardgrass
  pest or weed control at 125 g/ha: 90%
[2]; 31 g ai/ha, 0 is no effect, 100 is complete control, read-out: Wheat plant response rating (0 to 100 scale)
  plant injury at 31 g/ha: 20%
[2]; 125 g ai/ha, visual injury after approx. 10 d, 0 to 100 scale, 0 no effect, 100 complete control, read-out: Plant response rating, Wheat
  plant injury at 125 g/ha: 40%
[3]; 31 g ai/ha, 0 is no effect, 100 is complete control, read-out: Ryegrass, Italian plant response rating (0 to 100 scale)
  pest or weed control at 31 g/ha: 0%
[3]; 125 g ai/ha, visual injury after approx. 10 d, 0 to 100 scale, 0 no effect, 100 complete control, read-out: Plant response rating, Ryegrass, Italian
  pest or weed control at 125 g/ha: 0%
Kochia (Kochia scoparia) [4]; 31 g ai/ha, 0 is no effect, 100 is complete control, read-out: Kochia plant response rating (0 to 100 scale)
  pest or weed control at 31 g/ha: 30%
Kochia (Kochia scoparia) [4]; 125 g ai/ha, visual injury after approx. 10 d, 0 to 100 scale, 0 no effect, 100 complete control, read-out: Plant response rating, Kochia
  pest or weed control at 125 g/ha: 70%
[5]; 31 g ai/ha, 0 is no effect, 100 is complete control, read-out: Galium plant response rating (0 to 100 scale)
  pest or weed control at 31 g/ha: 60%
[5]; 125 g ai/ha, visual injury after approx. 10 d, 0 to 100 scale, 0 no effect, 100 complete control, read-out: Plant response rating, Galium
  pest or weed control at 125 g/ha: 70%
[6]; 31 g ai/ha, 0 is no effect, 100 is complete control, read-out: Foxtail, Giant plant response rating (0 to 100 scale)
  pest or weed control at 31 g/ha: 50%
[6]; 125 g ai/ha, visual injury after approx. 10 d, 0 to 100 scale, 0 no effect, 100 complete control, read-out: Plant response rating, Foxtail, Giant
  pest or weed control at 125 g/ha: 90%
[7]; 31 g ai/ha, 0 is no effect, 100 is complete control, read-out: Ragweed plant response rating (0 to 100 scale)
  pest or weed control at 31 g/ha: 0%
[7]; 125 g ai/ha, visual injury after approx. 10 d, 0 to 100 scale, 0 no effect, 100 complete control, read-out: Plant response rating, Ragweed
  pest or weed control at 125 g/ha: 20%
Corn (Zea mays); 31 g ai/ha, 0 is no effect, 100 is complete control, read-out: Corn plant response rating (0 to 100 scale)
  plant injury at 31 g/ha: 0%
Corn (Zea mays); 125 g ai/ha, visual injury after approx. 10 d, 0 to 100 scale, 0 no effect, 100 complete control
  Corn plant response rating (crop injury, 0 = no effect, 100 = complete kill) at 125 g/ha: 0%
[8]; 31 g ai/ha, 0 is no effect, 100 is complete control, read-out: Blackgrass plant response rating (0 to 100 scale)
  pest or weed control at 31 g/ha: 0%
[8]; 125 g ai/ha, visual injury after approx. 10 d, 0 to 100 scale, 0 no effect, 100 complete control, read-out: Plant response rating, Blackgrass
  pest or weed control at 125 g/ha: 50%
[9]; 31 g ai/ha, 0 is no effect, 100 is complete control, read-out: Pigweed plant response rating (0 to 100 scale)
  pest or weed control at 31 g/ha: 0%
[9]; 125 g ai/ha, visual injury after approx. 10 d, 0 to 100 scale, 0 no effect, 100 complete control, read-out: Plant response rating, Pigweed
  pest or weed control at 125 g/ha: 0%
[10]; 31 g ai/ha, 0 to 100 scale where 0 is no effect and 100 is complete control, read-out: Barnyardgrass plant response rating
  pest or weed control at 31 g/ha: 100%
[10]; 125 g ai/ha, 0 to 100 scale (0 no effect, 100 complete control), read-out: Plant response rating, Barnyardgrass
  pest or weed control at 125 g/ha: 90%
[11]; 31 g ai/ha, 0 to 100 scale where 0 is no effect and 100 is complete control, read-out: Ryegrass, Italian plant response rating
  pest or weed control at 31 g/ha: 0%
[11]; 125 g ai/ha, 0 to 100 scale (0 no effect, 100 complete control), read-out: Plant response rating, Ryegrass, Italian
  pest or weed control at 125 g/ha: 0%
Kochia (Kochia scoparia) [12]; 31 g ai/ha, 0 to 100 scale where 0 is no effect and 100 is complete control, read-out: Kochia plant response rating
  pest or weed control at 31 g/ha: 20%
Kochia (Kochia scoparia) [12]; 125 g ai/ha, 0 to 100 scale (0 no effect, 100 complete control), read-out: Plant response rating, Kochia
  pest or weed control at 125 g/ha: 80%
[13]; 31 g ai/ha, 0 to 100 scale where 0 is no effect and 100 is complete control, read-out: Foxtail, Giant plant response rating
  pest or weed control at 31 g/ha: 100%
[13]; 125 g ai/ha, 0 to 100 scale (0 no effect, 100 complete control), read-out: Plant response rating, Foxtail, Giant
  pest or weed control at 125 g/ha: 100%
[14]; 31 g ai/ha, 0 to 100 scale where 0 is no effect and 100 is complete control, read-out: Ragweed plant response rating
  pest or weed control at 31 g/ha: 30%
[14]; 125 g ai/ha, 0 to 100 scale (0 no effect, 100 complete control), read-out: Plant response rating, Ragweed
  pest or weed control at 125 g/ha: 0%
[15]; 31 g ai/ha, 0 to 100 scale where 0 is no effect and 100 is complete control, read-out: Pigweed plant response rating
  pest or weed control at 31 g/ha: 20%
[15]; 125 g ai/ha, 0 to 100 scale (0 no effect, 100 complete control), read-out: Plant response rating, Pigweed
  pest or weed control at 125 g/ha: 90%
[16]
  pest or weed control at 250 g/ha: 90%
Rice (Oryra sativa)
  pest or weed control at 250 g/ha: 0%
[17]
  pest or weed control at 250 g/ha: 95%
[18]
  pest or weed control at 250 g/ha: 0%
